# Marks after values point to notes of the source that are not given here.
# What was measured:
# [1] = system: high fat fed mice; test: Glucose tolerance test after 21 days treatment; format: in vivo
# Protocol: Twice daily (09:30 and 17:30 h) i.p. injections of saline vehicle (0.9% w/v NaCl), polypeptides (at 25 nmol/kg bw) were administered for 21 days in high fat mice. Energy intake and body weight were monitored daily, and non-fasting blood glucose and plasma insulin concentrations were assessed at 3 day intervals. On day 21, a non-fasted 24 h glucose profile was conducted. At the end of the treatment period, i.p. glucose tolerance (18 mmol/kg bw), biological response to GIP (18 mmol/kg glucose in combination with native GIP (25 nmol/kg); i.p.) and insulin sensitivity (15 U/kg bw; i.p.) tests were performed. HOMA-IR was determined using the equation HOMA-IR=fasting glucose (mmol/l)×fasting insulin (mU/l)/22.5. All test solutions were administered in a final volume of 5 ml/kg body weight, at 10:00 h without previous 09:30 h peptide injection. Terminal analysis included measurement of total body fat and lean mass by DEXA scanning (Piximus Densitometer, Inside Outside Sales, Madison Wis., USA) and extraction of pancreatic tissue for analysis as detailed below. Immunohistochemistry Pancreatic tissue was excised, divided longitudinally and either immediately snap frozen for subsequent extraction of insulin using acid ethanol extraction (5 ml/g) as described by Irwin et al., 2015 (Diabetes. 2015 August; 64(8):2996-3009), or processed for immunohistochemical examination. Briefly, pancreatic tissues were fixed in 4% parafolmaldehyde at 4° C. for 48 h. Pancreata were then embedded in paraffin wax and processed using an automated tissue processor (Leica TP1020, Leica Microsystems, Nussloch, Germany). Immunohistochemistry was performed as described by Vasu et al., 2014 (PLoS One. 2014 Jun. 26; 9(6):e101005). Succinctly, tissue sections were deparaffinised, rehydrated and probed with primary antibodies: mouse anti-insulin antibody (1:500; Abcam, ab6995) or guinea-pig anti-glucagon antibody (PCA2/4, 1:400; raised in-house). The sections were then incubated with secondary antibody, Alexa Fluor 488 goat anti-guinea pig IgG (1:400) or Alexa Fluor 594 goat anti-mouse IgG (1:400); respectively. […] Islet parameters were analysed using Cell^F image analysis software (Olympus Soft Imaging Solutions, GmbH).
# Tests were conducted after twice daily treatment with saline vehicle (0.9% (w/v) NaCl), (DAla^2)GIP and (DAla^2)GIP/xenin-8-Gln (each at 25 nmol/kg bw) for 21 days. For glucose tolerance test, blood glucose and plasma insulin concentrations were measured before and 15, 30, 60 and 105 min after i.p injection of glucose (18 mmol/kg bw). For metabolic response to GIP, blood glucose and plasma insulin concentrations were measured before and 15, 30, 60 and 105 min after i.p injection of glucose (18 mmol/kg bw) in combination with GIP (25 nmol/kg bw). […]
# [2] = system: high fat fed mice; test: Sub chronic 21 day twice daily study in high fat fed mice (energy intake, body weight, body composition, glucose, insulin); format: in vivo; conditions: 25 nmol/kg twice daily
# Protocol: All animal experiments were carried out in accordance with the UK Animals (Scientific Procedures) Act 1986. […] On day 21, a non-fasted 24 h glucose profile was conducted. […] HOMA-IR was determined using the equation HOMA-IR=fasting glucose (mmol/l)×fasting insulin (mU/l)/22.5. […] Terminal analysis included measurement of total body fat and lean mass by DEXA scanning (Piximus Densitometer, Inside Outside Sales, Madison Wis., USA) and extraction of pancreatic tissue for analysis as detailed below. […] Briefly, pancreatic tissues were fixed in 4% parafolmaldehyde at 4° C. for 48 h. Pancreata were then embedded in paraffin wax and processed using an automated tissue processor (Leica TP1020, Leica Microsystems, Nussloch, Germany). […] Abcam, ab6995) or guinea-pig anti-glucagon antibody (PCA2/4, 1:400; raised in-house). […] The slides were viewed under a FITC (488 nm) or TRITC filter (594 nm) using a fluorescent microscope (Olympus system microscope, model BX51) and photographed using a DP70 camera adapter system. Islet parameters were analysed using Cell^F image analysis software (Olympus Soft Imaging Solutions, GmbH). Blood samples were collected from the cut tip on the tail vein of conscious mice into chilled fluoride/heparin glucose micro-centrifuge tubes (Sarstedt, Numbrecht, Germany) at the time points indicated in the Drawings. Blood glucose was measured directly using a hand-held Ascencia Contour blood glucose meter (Bayer Healthcare, Newbury, Berkshire, UK).
# [3] = system: high fat fed mice; test: Metabolic response to GIP after 21 days treatment; format: in vivo
# Protocol: Twice daily (09:30 and 17:30 h) i.p. injections of saline vehicle (0.9% w/v NaCl), polypeptides (at 25 nmol/kg bw) were administered for 21 days in high fat mice. Energy intake and body weight were monitored daily, and non-fasting blood glucose and plasma insulin concentrations were assessed at 3 day intervals. On day 21, a non-fasted 24 h glucose profile was conducted. At the end of the treatment period, i.p. glucose tolerance (18 mmol/kg bw), biological response to GIP (18 mmol/kg glucose in combination with native GIP (25 nmol/kg); i.p.) and insulin sensitivity (15 U/kg bw; i.p.) tests were performed. HOMA-IR was determined using the equation HOMA-IR=fasting glucose (mmol/l)×fasting insulin (mU/l)/22.5. All test solutions were administered in a final volume of 5 ml/kg body weight, at 10:00 h without previous 09:30 h peptide injection. Terminal analysis included measurement of total body fat and lean mass by DEXA scanning (Piximus Densitometer, Inside Outside Sales, Madison Wis., USA) and extraction of pancreatic tissue for analysis as detailed below. Immunohistochemistry Pancreatic tissue was excised, divided longitudinally and either immediately snap frozen for subsequent extraction of insulin using acid ethanol extraction (5 ml/g) as described by Irwin et al., 2015 (Diabetes. 2015 August; 64(8):2996-3009), or processed for immunohistochemical examination. Briefly, pancreatic tissues were fixed in 4% parafolmaldehyde at 4° C. for 48 h. Pancreata were then embedded in paraffin wax and processed using an automated tissue processor (Leica TP1020, Leica Microsystems, Nussloch, Germany). Immunohistochemistry was performed as described by Vasu et al., 2014 (PLoS One. 2014 Jun. 26; 9(6):e101005). Succinctly, tissue sections were deparaffinised, rehydrated and probed with primary antibodies: mouse anti-insulin antibody (1:500; Abcam, ab6995) or guinea-pig anti-glucagon antibody (PCA2/4, 1:400; raised in-house). The sections were then incubated with secondary antibody, Alexa Fluor 488 goat anti-guinea pig IgG (1:400) or Alexa Fluor 594 goat anti-mouse IgG (1:400); respectively. The slides were viewed under a FITC (488 nm) or TRITC filter (594 nm) using a fluorescent microscope (Olympus system microscope, model BX51) and photographed using a DP70 camera adapter system. Islet parameters were analysed using Cell^F image analysis software (Olympus Soft Imaging Solutions, GmbH).
# Tests were conducted after twice daily treatment with saline vehicle (0.9% (w/v) NaCl), (DAla^2)GIP and (DAla^2)GIP/xenin-8-Gln (each at 25 nmol/kg bw) for 21 days. For glucose tolerance test, blood glucose and plasma insulin concentrations were measured before and 15, 30, 60 and 105 min after i.p injection of glucose (18 mmol/kg bw). For metabolic response to GIP, blood glucose and plasma insulin concentrations were measured before and 15, 30, 60 and 105 min after i.p injection of glucose (18 mmol/kg bw) in combination with GIP (25 nmol/kg bw). All studies were conducted in 18 h fasted mice. AUC values (0-105 min) for blood glucose and plasma insulin are shown. Values represent means±SEM for 6-8 mice. *P<0.05, **P<0.01, […] compared to high fat controls. ^ΔP<0.05, ^ΔΔP<0.01, ^ΔΔΔP<0.001 compared to lean controls.
# [4] = biological target: T1, DPP-4 (Sus scrofa, UniProt P22411); test: DPP-4 degradation / in vitro DPP-4 half-life; format: in vitro ADME, porcine; conditions: pig; 37° C., 50 mmol/L TEA-HCl pH 7.8, 5 mU purified porcine DPP-4, 0-12 h
# T1 construct: purchased Sigma-Aldrich, Dorset, UK
# Protocol: (§1) For calculation of experimental molecular masses, peptide samples (1 μg) were mixed with α-cyano-4-hydroxycinnamic acid (1 μg) and applied to a Voyager-DE BioSpectrometry Workstation and mass-to-charge (m/z) ratio verses peak intensity recorded by MALDI-TOF mass spectrometry. […] Degradation profiles were obtained using rp-HPLC analysis and HPLC peak area data used to calculate percentage intact peptide remaining at each time point.
# (§2) Briefly, polypeptides (20 μg) were incubated with 5 μl of purified DPP-4 (5 mU, Sigma-Aldrich, Dorset, UK) in 50 mM TEA-HCl (pH 7.8; final volume 450 μl) at 37° C. for 0, 1, 4 and 12 hours. Enzymatic reactions were terminated by the addition of 50 μl TFA/H2O (10% v/v, Sigma-Aldrich, Dorset, UK). Reaction products were then separated by HPLC and analysed using MALDI-TOF.
# [5] = biological target: T2, purified porcine DPP-4 (Sus scrofa, UniProt P22411); test: DPP-4 degradation / in vitro DPP-4 half-life; format: in vitro ADME; conditions: incubated in the presence of DPP-4 for up to 12 hs
# T2 construct: purchased Sigma-Aldrich, Dorset, UK
# Protocol: as §1, §2
# [6] = 0-105 min, glucose 18 mmol/kg i.p., 18 h fasted, after 21 days 25 nmol/kg twice daily, mean ± SEM
# [7] = 21 days treatment, vs high fat controls
# [8] = 0-105 min, glucose 18 mmol/kg + GIP 25 nmol/kg i.p., 18 h fasted, after 21 days treatment, mean ± SEM
# T2 sequence (P22411 whole entry): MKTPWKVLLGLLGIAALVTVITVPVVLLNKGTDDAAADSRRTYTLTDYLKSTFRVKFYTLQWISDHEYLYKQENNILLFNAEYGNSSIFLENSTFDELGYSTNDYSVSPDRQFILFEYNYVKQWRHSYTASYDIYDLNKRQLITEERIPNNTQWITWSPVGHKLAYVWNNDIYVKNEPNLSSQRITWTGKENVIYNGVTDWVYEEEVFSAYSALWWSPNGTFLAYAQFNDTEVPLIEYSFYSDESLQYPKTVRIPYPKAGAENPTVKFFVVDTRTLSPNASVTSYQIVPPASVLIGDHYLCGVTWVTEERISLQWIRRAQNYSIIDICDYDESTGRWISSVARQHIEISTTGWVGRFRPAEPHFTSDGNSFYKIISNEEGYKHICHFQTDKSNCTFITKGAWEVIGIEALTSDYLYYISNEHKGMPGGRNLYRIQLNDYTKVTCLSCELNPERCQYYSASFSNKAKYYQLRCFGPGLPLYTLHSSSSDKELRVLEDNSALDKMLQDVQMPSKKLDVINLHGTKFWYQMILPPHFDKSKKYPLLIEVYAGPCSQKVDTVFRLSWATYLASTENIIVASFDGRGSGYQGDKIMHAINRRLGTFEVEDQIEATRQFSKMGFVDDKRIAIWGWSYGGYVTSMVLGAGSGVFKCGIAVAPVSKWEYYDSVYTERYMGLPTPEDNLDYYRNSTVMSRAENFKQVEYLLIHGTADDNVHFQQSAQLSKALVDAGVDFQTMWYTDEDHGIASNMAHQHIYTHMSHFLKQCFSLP
# T1 sequence (P22411 whole entry): as above
smiles,measurement,setting,value
"CC[C@H](C)[C@H](NC(=O)[C@H](CO)NC(=O)[C@H](Cc1ccc(O)cc1)NC(=O)[C@H](CC(=O)O)NC(=O)[C@H](CO)NC(=O)[C@@H](NC(=O)[C@H](Cc1ccccc1)NC(=O)[C@@H](NC(=O)CNC(=O)[C@H](CCC(=O)O)NC(=O)[C@@H](C)NC(=O)[C@@H](N)Cc1ccc(O)cc1)[C@@H](C)O)[C@@H](C)CC)C(=O)N[C@@H](C)C(=O)N[C@@H](CCSC)C(=O)N[C@@H](CC(=O)O)C(=O)N[C@@H](CCCCN)C(=O)N[C@H](C(=O)N[C@@H](Cc1c[nH]cn1)C(=O)N[C@@H](CCC(N)=O)C(=O)N[C@@H](CCC(N)=O)C(=O)N[C@@H](CC(=O)O)C(=O)N[C@@H](Cc1ccccc1)C(=O)N[C@H](C(=O)N[C@@H](CC(N)=O)C(=O)N[C@@H](Cc1c[nH]c2ccccc12)C(=O)N[C@@H](CC(C)C)C(=O)N[C@@H](CC(C)C)C(=O)N[C@@H](C)C(=O)N[C@@H](CCC(N)=O)C(=O)N[C@@H](CCCCN)C(=O)NCC(=O)N[C@@H](CCCCN)C(=O)N[C@@H](CCCCN)C(=O)N[C@@H](CC(N)=O)C(=O)N[C@@H](CC(=O)O)C(=O)N[C@@H](Cc1c[nH]c2ccccc12)C(=O)N[C@@H](CCCCN)C(=O)N[C@@H](Cc1c[nH]cn1)C(=O)N[C@@H](CC(N)=O)C(=O)N[C@H](C(=O)N[C@H](C(=O)N[C@@H](CCC(N)=O)C(=O)O)[C@@H](C)O)[C@@H](C)CC)C(C)C)[C@@H](C)CC [(DAla2)GIP, TYR-(d)ALA-GLU-GLY-THR-PHE-ILE-SER-ASP-TYR-SER-ILE-ALA-MET-ASP-LYS-ILE-HIS-GLN-GLN-ASP-PHE-VAL-ASN-TRP-LEU-LEU-ALA-GLN-LYS-GLY-LYS-LYS-ASN-ASP-TRP-LYS-HIS-ASN-ILE-THR-GLN]",Glucose tolerance test Blood glucose AUC,[1]; [6],1714.7 ± 138.6^Δ mmol/l · min
same,Glucose tolerance test Plasma insulin AUC,[1]; [6],65.4 ± 9.2^Δ ng/ml · min
same,Glucose-stimulated plasma insulin AUC,[1]; [7],"reduced, albeit non-significantly"
same,Overall AUC blood glucose following a glucose load,"[1]; 21 days treatment, vs saline controls",strong tendency to reduce overall AUC blood glucose levels
same,Non-fasting 24 h glucose profile on day 21,[2],"also reduced, but not to the same extent"
same,Circulating plasma insulin,[2]; 21 days,tendency for reduced plasma insulin levels
same,Energy intake or body weight,"[2]; 21 days, vs high fat controls",no significant effect
same,Total body fat and lean mass (DXA),[2]; after 21 days,unaltered
same,Non-fasting blood glucose vs lean control mice,[2]; from day 12 onwards,not significantly different from lean control mice
same,Metabolic response to GIP Blood glucose AUC,[3]; [8],1029.5 ± 138.0* mmol/l · min
same,Metabolic response to GIP Plasma insulin AUC,[3]; [8],"142.3 ± 19.2**^,ΔΔΔ ng/ml · min"
same,Glucose lowering and insulin releasing actions of native GIP,[3]; 21 days treatment,significantly (P<0.05) improved
same,Decrease of overall blood glucose AUC in response to GIP vs saline treated control mice,"[3]; 21 days treatment, P<0.05",36%
same,GIP-induced elevations of plasma insulin (AUC),[3]; [7],significantly (P<0.05 to P<0.01) augmented
same,half-life,[4],> 12 h
same,Intactness on incubation with DPP-4,[5],remained fully intact
